{"source": "patent US9539307B2", "about": "“Compositions and methods for treating amyotrophic lateral sclerosis” (THE RESEARCH INSTITUTE AT NATIONWIDE CHILDREN'S HOSPITAL, priority 2012, dated 2017)", "key": {"[1]": {"test_system": "PRF1", "assay": "Western blot of PRF1 knockdown in human astrocytes", "format": "cell-based", "from_the_text": "(§1) To knockdown PRF1 and GZMB levels in astrocytes, sequences from the RNAi Consortium lentiviral shRNA library were screened and relevant plasmids purchased from Open Biosystems. Clones TRCN0000077206 ([…] (SEQ ID NO: 19)) and TRCN0000032742 ([…] (SEQ ID NO: 20)) were used to target PRF1 and GZMB in mouse astrocytes, respectively. Clones TRCN0000007942 ([…] (SEQ ID NO: 21)) and TRCN0000006448 ([…] (SEQ ID NO: 22)) were used to knockdown PRF1 and GZMB in human astrocytes, respectively. Scrambled shRNA were used as controls for PRF1 ([…] (SEQ ID NO: 23)) and for GZMB ([…] (SEQ ID NO: 24)). […] Prior to addition to astrocytes, viral titer was obtained using Quick-titer lentivirus quantification kit follow manufacture's directions (CellBiolabs Inc, San Diego, Calif., USA).\n(§2) Based on the levels of knockdown efficiency evaluated by western blot analysis, clones TRCN0000077206 ([…] (SEQ ID NO: 45)) and TRCN0000007942 ([…] (SEQ ID NO: 46)) were chosen to target PRF1 in mouse and human astrocytes, respectively. […]\n(§3) Crude protein cell lysates were obtained using the Tissue Protein Extracting Reagent (Pierce, Rockford, Ill.) following manufacture recommendations. […] Bound primary antibody was detected by horseradish peroxidase conjugated secondary antibody (Jackson ImmunoResearch, West Grove, Pa.) followed by chemiluminescence using ECLTM Western Blotting Detection Reagents (GE Healthcare)."}, "[2]": {"test_system": "GZMB", "assay": "Western blot of GZMB knockdown in human astrocytes", "format": "cell-based", "from_the_text": "as §1, §2, §3"}}}
{"sequence": "ACCTGAATCATGGCCACCTAA (chemistry not given here) [SEQ ID NO: 1]", "values": [{"measurement": "PRF1 expression", "setting": "[1]", "value": "efficiently ablate"}]}
{"sequence": "CATTGTCTCCTATGGACGAAA (expressed or natural sequence) [SEQ ID NO: 2]", "values": [{"measurement": "GZMB expression", "setting": "[2]", "value": "efficiently ablate"}]}
